ChEMBL document CHEMBL5465560, “Selectivity Literature for EUbOPEN Chemogenomic Library” (2024)

Key:
[1] = biological target: Tyrosine-protein kinase JAK1 (Homo sapiens, UniProt P23458); experiment: Selectivity interaction (SelectScreen profiling (Invitrogen)) EUB0000607a JAK1; details: at 2 µM
[2] = biological target: T1, Serine/threonine-protein kinase TAO2 (Homo sapiens) (UniProt Q9UL54); experiment: Selectivity interaction (KinomeScan (DiscoverX)) EUB0000607a TAOK2; details: at 10 µM
T1 sequence (whole entry): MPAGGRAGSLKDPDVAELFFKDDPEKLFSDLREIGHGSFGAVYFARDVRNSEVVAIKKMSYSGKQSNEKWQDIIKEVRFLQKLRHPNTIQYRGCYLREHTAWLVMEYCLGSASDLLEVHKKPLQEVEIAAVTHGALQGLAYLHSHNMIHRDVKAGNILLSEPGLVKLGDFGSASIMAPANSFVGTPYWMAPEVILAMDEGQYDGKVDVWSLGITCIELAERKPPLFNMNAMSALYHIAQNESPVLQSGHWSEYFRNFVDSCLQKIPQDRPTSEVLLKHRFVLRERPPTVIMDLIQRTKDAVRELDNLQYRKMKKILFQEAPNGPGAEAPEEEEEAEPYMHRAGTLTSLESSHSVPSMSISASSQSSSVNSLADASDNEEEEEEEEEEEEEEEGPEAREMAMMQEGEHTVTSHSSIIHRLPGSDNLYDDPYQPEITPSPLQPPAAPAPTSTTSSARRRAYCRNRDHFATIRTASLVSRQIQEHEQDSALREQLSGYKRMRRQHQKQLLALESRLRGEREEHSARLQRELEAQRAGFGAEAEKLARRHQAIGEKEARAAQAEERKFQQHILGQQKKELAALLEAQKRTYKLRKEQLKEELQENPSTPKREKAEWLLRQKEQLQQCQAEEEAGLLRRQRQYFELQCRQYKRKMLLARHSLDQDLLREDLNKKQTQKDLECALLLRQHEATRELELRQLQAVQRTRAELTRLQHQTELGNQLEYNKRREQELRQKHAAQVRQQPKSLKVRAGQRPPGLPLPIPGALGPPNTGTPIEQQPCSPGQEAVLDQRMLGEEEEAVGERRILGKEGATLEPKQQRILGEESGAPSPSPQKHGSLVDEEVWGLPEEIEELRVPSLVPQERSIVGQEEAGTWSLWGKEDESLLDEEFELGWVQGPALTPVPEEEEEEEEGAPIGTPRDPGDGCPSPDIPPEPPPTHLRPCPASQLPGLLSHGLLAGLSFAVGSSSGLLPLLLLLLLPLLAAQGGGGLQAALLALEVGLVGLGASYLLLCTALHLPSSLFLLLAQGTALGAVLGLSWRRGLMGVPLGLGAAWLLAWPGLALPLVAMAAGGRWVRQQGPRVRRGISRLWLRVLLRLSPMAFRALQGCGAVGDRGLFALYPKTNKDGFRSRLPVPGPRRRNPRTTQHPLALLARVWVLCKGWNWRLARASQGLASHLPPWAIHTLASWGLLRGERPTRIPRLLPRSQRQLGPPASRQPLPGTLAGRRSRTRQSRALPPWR

[3] = biological target: Tyrosine-protein kinase Fgr (Homo sapiens) (UniProt P09769); details: at 10 µM
[4] = biological target: Histone-lysine N-methyltransferase ASH1L (Homo sapiens) (UniProt Q9NR48); experiment: Selectivity interaction (Methyltransferase screen (radiometric assays, panel of 8 PRMTs, 21 protein lysine methyltransferases, 3 DNA methyltransferases, and one RNA methyltransferase)) EUB0000271b ASH1L
[5] = biological target: T2, Cytoplasmic tyrosine-protein kinase BMX (Homo sapiens) (UniProt P51813); experiment: Selectivity interaction (Ambit KINOMEscan and KiNATiv profiling in Jurkat cells) EUB0000090b BMX; assay type: cell-based; details: at 1 µM
T2 sequence (whole entry): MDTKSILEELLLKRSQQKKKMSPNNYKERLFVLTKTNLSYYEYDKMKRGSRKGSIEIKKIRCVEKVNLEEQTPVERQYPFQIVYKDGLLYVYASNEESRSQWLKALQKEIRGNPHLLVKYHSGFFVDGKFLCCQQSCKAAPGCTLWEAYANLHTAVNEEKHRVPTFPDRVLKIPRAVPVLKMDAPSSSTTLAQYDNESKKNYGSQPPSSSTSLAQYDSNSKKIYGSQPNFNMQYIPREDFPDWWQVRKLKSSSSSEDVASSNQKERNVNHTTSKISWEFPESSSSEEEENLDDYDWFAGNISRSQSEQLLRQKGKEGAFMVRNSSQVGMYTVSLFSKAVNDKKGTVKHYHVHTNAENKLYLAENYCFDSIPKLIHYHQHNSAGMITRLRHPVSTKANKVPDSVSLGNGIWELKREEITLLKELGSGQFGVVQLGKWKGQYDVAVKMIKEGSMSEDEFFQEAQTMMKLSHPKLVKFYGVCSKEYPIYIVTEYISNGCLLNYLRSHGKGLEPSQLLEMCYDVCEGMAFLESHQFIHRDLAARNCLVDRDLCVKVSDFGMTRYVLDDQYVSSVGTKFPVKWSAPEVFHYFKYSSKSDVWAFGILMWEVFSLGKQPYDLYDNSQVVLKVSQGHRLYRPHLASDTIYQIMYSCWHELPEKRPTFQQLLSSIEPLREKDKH

[6] = biological target: T3, Serine/threonine-protein kinase TBK1 (Homo sapiens) (UniProt Q9UHD2); experiment: Selectivity interaction (KinomeScan (DiscoverX)) EUB0000092b TBK1; details: at 10 µM
T3 sequence (whole entry): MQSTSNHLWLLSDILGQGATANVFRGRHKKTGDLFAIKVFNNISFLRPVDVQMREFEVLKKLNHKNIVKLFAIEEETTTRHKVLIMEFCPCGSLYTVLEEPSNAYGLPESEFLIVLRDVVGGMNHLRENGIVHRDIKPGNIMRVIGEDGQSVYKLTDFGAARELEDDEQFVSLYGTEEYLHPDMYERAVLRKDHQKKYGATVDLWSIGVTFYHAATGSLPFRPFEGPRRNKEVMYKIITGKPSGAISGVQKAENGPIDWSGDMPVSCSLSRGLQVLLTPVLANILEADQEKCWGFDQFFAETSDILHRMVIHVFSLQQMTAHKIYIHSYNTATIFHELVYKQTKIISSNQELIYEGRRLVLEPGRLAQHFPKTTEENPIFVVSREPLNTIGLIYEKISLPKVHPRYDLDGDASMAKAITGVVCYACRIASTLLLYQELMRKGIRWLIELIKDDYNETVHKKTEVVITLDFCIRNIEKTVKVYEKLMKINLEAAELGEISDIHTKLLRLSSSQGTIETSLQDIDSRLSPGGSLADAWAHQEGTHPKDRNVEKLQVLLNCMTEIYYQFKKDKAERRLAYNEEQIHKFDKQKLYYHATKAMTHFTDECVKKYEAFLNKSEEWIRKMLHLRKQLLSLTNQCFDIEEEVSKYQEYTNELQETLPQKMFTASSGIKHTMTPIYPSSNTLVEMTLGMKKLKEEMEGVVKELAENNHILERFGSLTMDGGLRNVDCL

Chain of Tyrosine-protein kinase JAK1 (P23458 whole entry): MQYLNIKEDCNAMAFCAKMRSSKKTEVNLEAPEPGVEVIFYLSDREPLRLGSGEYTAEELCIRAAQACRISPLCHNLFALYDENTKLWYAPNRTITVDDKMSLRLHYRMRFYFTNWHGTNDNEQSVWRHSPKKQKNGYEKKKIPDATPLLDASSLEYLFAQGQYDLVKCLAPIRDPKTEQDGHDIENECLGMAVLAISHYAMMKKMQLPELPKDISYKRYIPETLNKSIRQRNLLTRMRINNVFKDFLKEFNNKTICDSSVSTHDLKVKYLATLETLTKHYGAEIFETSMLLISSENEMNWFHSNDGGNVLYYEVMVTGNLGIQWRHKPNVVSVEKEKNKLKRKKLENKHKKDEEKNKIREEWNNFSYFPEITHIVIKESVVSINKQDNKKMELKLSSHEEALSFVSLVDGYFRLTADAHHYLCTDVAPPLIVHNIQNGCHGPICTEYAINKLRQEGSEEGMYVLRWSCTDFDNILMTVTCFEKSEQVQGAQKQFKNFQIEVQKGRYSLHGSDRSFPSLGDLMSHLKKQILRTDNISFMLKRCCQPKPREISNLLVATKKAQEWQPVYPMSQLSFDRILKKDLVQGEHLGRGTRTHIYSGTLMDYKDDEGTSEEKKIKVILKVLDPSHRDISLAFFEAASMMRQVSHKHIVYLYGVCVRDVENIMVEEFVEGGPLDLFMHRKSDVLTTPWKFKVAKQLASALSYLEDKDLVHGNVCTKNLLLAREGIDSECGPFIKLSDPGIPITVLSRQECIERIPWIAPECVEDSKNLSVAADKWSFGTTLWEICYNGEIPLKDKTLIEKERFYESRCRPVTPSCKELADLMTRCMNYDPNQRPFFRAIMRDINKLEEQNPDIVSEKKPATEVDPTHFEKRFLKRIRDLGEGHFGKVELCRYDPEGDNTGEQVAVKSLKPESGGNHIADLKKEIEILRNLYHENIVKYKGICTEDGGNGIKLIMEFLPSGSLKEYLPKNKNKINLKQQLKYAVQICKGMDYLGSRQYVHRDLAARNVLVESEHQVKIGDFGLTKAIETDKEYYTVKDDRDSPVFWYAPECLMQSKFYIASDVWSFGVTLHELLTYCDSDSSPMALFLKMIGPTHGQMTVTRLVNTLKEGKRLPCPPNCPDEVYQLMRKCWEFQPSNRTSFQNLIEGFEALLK
Chain of Tyrosine-protein kinase Fgr (Homo sapiens) (P09769 2-529 limits assumed): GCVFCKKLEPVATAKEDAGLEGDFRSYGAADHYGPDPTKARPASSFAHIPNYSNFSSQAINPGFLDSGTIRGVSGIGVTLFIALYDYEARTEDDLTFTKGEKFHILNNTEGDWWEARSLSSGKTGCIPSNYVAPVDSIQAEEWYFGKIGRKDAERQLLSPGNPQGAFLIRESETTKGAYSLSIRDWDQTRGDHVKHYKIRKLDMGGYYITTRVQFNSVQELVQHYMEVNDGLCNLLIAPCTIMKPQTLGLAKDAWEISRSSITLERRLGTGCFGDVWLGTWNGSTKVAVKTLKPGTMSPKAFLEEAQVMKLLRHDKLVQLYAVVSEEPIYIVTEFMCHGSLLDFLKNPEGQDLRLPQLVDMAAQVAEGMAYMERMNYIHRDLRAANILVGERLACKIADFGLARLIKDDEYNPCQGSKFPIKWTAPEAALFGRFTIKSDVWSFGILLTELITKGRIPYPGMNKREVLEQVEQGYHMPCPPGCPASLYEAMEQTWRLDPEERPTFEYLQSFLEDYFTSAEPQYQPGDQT

`CNC(=O)Nc1ccc(-c2nc(N3CC4CCC(C3)O4)c3cnn(C4CCC5(CC4)OCCO5)c3n2)cc1` showed a % of inhibition [1] of 5% and a % of control [2] of 100%.

In the case of `CCN(CC)CCCCNc1ncc2cc(-c3cc(OC)cc(OC)c3)c(NC(=O)NC(C)(C)C)nc2n1`, the % of control [3] is reported as 100%.

For `Cc1cc(C)cc([C@@H]2c3cc(C)ccc3NC(=O)CN2C(=O)c2ccc(Br)s2)c1`, the % of activity ([4]; at 1 µM) was 97.3% and the % of activity ([4]; at 10 µM) was 105%.

`CN(C)C/C=C/C(=O)Nc1ccc(C(=O)N2CCCC(Nc3ncc(Cl)c(-c4c[nH]c5ccccc45)n3)C2)cc1` (configuration not stated) gave a % of control [5] of 95%.

`CCC(=O)N1CCN(c2ccc(-n3c(=O)ccc4cnc5ccc(-c6cnc7ccccc7c6)cc5c43)cc2C(F)(F)F)CC1` was tested, and the % of control [6] was 93%.
